# Results taken from paper doi:10.1101/306035v1 (biorxiv, 2018).
# Target: T1, DcaPTrunc (Acinetobacter baumannii, UniProt A0A0D5YFT0)
# T1 sequence (A0A0D5YFT0 89-434): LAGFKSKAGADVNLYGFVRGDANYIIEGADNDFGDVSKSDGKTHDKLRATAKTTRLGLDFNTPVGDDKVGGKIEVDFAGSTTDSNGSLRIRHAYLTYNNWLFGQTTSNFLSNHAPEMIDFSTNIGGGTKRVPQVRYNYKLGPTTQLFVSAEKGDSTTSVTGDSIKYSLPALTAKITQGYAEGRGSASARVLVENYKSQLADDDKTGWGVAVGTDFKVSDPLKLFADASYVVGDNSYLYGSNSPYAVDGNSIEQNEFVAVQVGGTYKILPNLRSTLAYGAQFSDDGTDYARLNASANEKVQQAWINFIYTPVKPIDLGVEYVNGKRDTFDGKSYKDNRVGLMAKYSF
# Assay: biochemical
structure (smiles),measurement,value
O=C(O)c1ccccc1C(=O)O [o-phthalic acid],Kd,~9 mM
